From US20040072801A1, “Sterols bearing pendant allosteric effectors of hemoglobin, and uses thereof” (priority 2002, published 2004)
“And” between values parts separate entries of the source, which are not always exact repeats. Equal values may be shown once. “Also recorded” adds a separate entry of the source. Read-outs that look alike come from different tables or passages of the source.

What was measured:
stripped hemoglobin = stripped hemoglobin (Homo sapiens, UniProt P68871); details: pH 7.4, cited from earlier work
Chain of stripped hemoglobin (P69905 2-142 partner limits assumed): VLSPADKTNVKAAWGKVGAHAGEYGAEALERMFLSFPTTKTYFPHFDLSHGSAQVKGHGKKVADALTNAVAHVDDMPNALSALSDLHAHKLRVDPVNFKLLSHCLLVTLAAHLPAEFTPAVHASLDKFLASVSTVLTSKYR
Chain of stripped hemoglobin (P68871 2-147 limits assumed): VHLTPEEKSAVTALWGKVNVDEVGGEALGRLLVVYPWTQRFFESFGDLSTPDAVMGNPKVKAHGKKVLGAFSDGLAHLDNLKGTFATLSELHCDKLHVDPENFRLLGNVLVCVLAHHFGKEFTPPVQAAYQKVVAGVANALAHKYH

[1] = test system: human RBCs in whole blood; assay: P50 of RBCs after in vitro incubation of human whole blood with effector (Hemox Analyzer); details: for lysis of red blood cells (hemolysis): tested on whole blood; for P50 Increase % / P50 mm HG EFF:WB: EFF:WB 1:1.5; for lysis of the RBC: physiological or nearly physiological osmotic pressure, in vitro whole blood
human RBCs = details: large-volume continuous-flow electroporation; cited from earlier work
C57B1/6 mice [2] = assay: Tolerability and pharmacodynamics of SV184 and SV192 after iv injection; type: in vivo, mouse
[3] = test system: mouse RBCs in whole blood; assay: P50 of RBCs after in vitro incubation of mouse whole blood with effector (Hemox Analyzer); type: cell-based; details: for P50 Increase %: mouse WB
C57B1/6 mice [4] = assay: Tolerability and pharmacodynamics of SV184 and SV192 after iv injection; type: in vivo, mouse; details: for toxicity upon iv injection in mice: 30 mM effector solution; for shift of P50 in blood of surviving mice: less than 200 μL iv, blood taken 4 and 24 hours after injection
Protocol: The tolerability and pharmacodynamics of the compounds SV184 and SV192 were tested in a small number of C57B1/6 mice. Mice receiving the whole volume of 200 μL of (30 mM) effector solution died immediately after injection or during injection (injection time 10-20 min). Eight mice receiving less than 200 μL of the compound solution survived. These mice were fast breathing and shaking, but recovered after 4 hours. […] Therefore, new derivatives were synthesized in our labs.

Free Hemoglobin = Free Hemoglobin (Homo sapiens, UniProt P68871); assay: P50 of free hemoglobin with effector (Table 1); type: biochemical; details: ratio 1:1 (2.5 mM:2.5 mM), pH 7.1-7.2, 37° C.
Chain of Free Hemoglobin (P69905 2-142 partner limits assumed): as the sequence (P69905 2-142 partner limits assumed) above
Chain of Free Hemoglobin (P68871 2-147 limits assumed): as the sequence (P68871 2-147 limits assumed) above
Excerpt: The sample chamger contained:

mice RBC = type: in vivo; details: ip 30, 45 and 60 mM; three hours after injection
Protocol: Three hours after injection, samples of blood were taken for P50 measurements. […] We have observed the shift of the P50 values in the blood from the injected animals over 3 days.
The P50 shift of RBC is similar to iv injections at concentrations of 30 and 45 mM.

[5] = biological target: T1, C57B1/6 mice free hemoglobin (Mus musculus, UniProt P02088); assay: P50 of mouse free hemoglobin after incubation with KF effectors; type: biochemical; details: effector 2.5 mM : mouse hemoglobin 2.5 mM, 1:1; pH 7.0
T1 construct: P50 values of C57B1/6 mice free hemoglobin after incubation with; from tissue; host or cells: blood of C57Bl/6 mice (inferred; the preparation is not described)
T1 sequence (P01942 2-142 partner limits assumed): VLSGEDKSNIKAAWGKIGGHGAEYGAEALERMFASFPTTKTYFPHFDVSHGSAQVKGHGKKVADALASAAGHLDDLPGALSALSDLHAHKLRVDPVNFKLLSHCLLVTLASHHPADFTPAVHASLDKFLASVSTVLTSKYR
T1 sequence (P02088 2-147 limits assumed): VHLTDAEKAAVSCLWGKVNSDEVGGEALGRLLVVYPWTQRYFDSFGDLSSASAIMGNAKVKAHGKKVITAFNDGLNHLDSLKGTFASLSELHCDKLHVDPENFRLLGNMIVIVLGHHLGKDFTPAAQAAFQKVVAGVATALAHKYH
Protocol: The pH of the compound solutions was adjusted to approximately 7.1 and effector solution (2.5 mM) and mouse hemoglobin (2.5 mM) were mixed at 1:1 ratio. The osmolarity was adjusted to 218-310 mOsM. Effectors and whole blood (WB) at 1:1.5 were incubated at 37° C. for 60 minutes.
They were tested for P50 right shift with mouse hemoglobin. The pH was adjusted to approximately 7.0 and effector solution (2.5 mM) and mouse hemoglobin (2.5 mM) were mixed at 1:1 ratio. P50 values were measured as before.

C57B1/6 mice [6] = test system: C57B1/6 mice
[7] = iv 200 μL of 30 mM, 1 mouse injected
[8] = EFF:WB 1:0.375, 224 mOsM, 30 mM
[9] = EFF:WB 1:0.375, 220 mOsM, 30 mM

Compound: O=C(O)C(COP(=O)(O)O)OP(=O)(O)O (centres unmarked) [2,3-Diphosphoglycerate]
- O2 half-saturation pressure P(O2)(½) of stripped hemoglobin (stripped hemoglobin; 25 C, without effector 4.3): 12.0 mm Hg
- O2 half-saturation pressure P(O2)(½) of stripped hemoglobin (stripped hemoglobin; 37 C, without effector 9.3): 23.7 mm Hg

Compound: CC(C)CCCC(C)C1CCC2C3CC=C4CC(OC(=O)OP(=O)(O)OC5C(OP(=O)(O)O)C(OP(=O)(O)O)C(OP(=O)(O)O)C(OP(=O)(O)O)C5OP(=O)(O)O)CCC4(C)C3CCC12C.CCCCN(CCCC)CCCC.CCCCN(CCCC)CCCC.CCCCN(CCCC)CCCC.CCCCN(CCCC)CCCC.CCCCN(CCCC)CCCC.CCCCN(CCCC)CCCC (centres unmarked) [Effector 2a, Inositol hexaphosphate-cholesteroloxycarbonyl, hexa tributyl-ammonium salt]
- lysis of red blood cells (hemolysis) [1]: triggered the lysis of the red blood cells

Compound: O=P(O)(O)O[C@H]1[C@H](OP(=O)(O)O)[C@@H](OP(=O)(O)O)[C@H](OP(=O)(O)O)[C@@H](OP(=O)(O)O)[C@H]1OP(=O)(O)O [IHP, inositol hexaphosphate]
- P50 of human RBCs with encapsulated IHP (human RBCs): approximately 50 torr
- O2 half-saturation pressure P(O2)(½) of stripped hemoglobin (stripped hemoglobin; 25 C, without effector 4.3): 48.4 mm Hg
- O2 half-saturation pressure P(O2)(½) of stripped hemoglobin (stripped hemoglobin; 37 C, without effector 9.3): 96.4 mm Hg

Compound: CC(C)CCCC(C)C1CCC2C3CC=C4CC(OC(=O)OP(=O)([O-])OC5C(OP(=O)([O-])[O-])C(OP(=O)([O-])[O-])C(OP(=O)([O-])[O-])C(OP(=O)([O-])[O-])C5OP(=O)([O-])[O-])CCC4(C)C3CCC12C.[Na+].[Na+].[Na+].[Na+].[Na+].[Na+].[Na+].[Na+].[Na+].[Na+].[Na+] (centres unmarked) [SV184, Inositol hexaphosphate-cholesteroloxycarbonyl, undecanyl sod ium salt]
- P50 Increase % ([1]; human WB, 232 mOsM, 30 mM): 16%
- P50 mm HG EFF:WB ([1]; human WB, 232 mOsM, 30 mM): 30.4 mm Hg
- P50 mm HG EFF:WB ([1]; human WB, 310 mOsM, 30 mM): 30 mm Hg
- Shift of P50 % (C57B1/6 mice [2]; iv 150 μL of 30 nM): <5%
- Number of mice died (C57B1/6 mice [2]; iv 150 μL of 30 mM, 4 mice injected): 0
- Number of mice died (C57B1/6 mice [2]; [7]): 1
- P50 mm HG EFF:WB [3, 8]: 44.3 mm Hg
- P50 mm HG EFF:WB ([3]; EFF:WB 1:1.5, 310 mOsM, 30 mM): 41.8 mm Hg
- P50 Increase % [3, 8]: 15%
- P50 Increase % ([3]; EFF:WB 1:1.5, 310 mOsM, 30 mM): 9%
- P50 (FIG. 2, Curve B) (C57B1/6 mice [4]; IV, WB mouse, 1 h, saline control P50=33.3): 41.0
- % increase of P50 (FIG. 2) (C57B1/6 mice [4]; IV, WB mouse, 1 h, versus saline control): 23.12%
- toxicity upon iv injection in mice (C57B1/6 mice [4]): high level of toxicity
- shift of P50 in blood of surviving mice (C57B1/6 mice [4]): did not show a significant shift of P50

Compound: CC(C)CCCC(C)C1CCC2C3CC=C4CC(OC(=O)OP(=O)(O)OC5C(OP(=O)(O)O)C(OP(=O)(O)O)C(OP(=O)(O)O)C(OP(=O)(O)O)C5OP(=O)(O)O)CCC4(C)C3CCC12C.CN(C)C1CCCCC1.CN(C)C1CCCCC1.CN(C)C1CCCCC1.CN(C)C1CCCCC1.CN(C)C1CCCCC1.CN(C)C1CCCCC1.CN(C)C1CCCCC1.CN(C)C1CCCCC1 (centres unmarked) [SV192, Inositol hexaphosphate-cholesteroloxycarbonyl, octa N,N-dimethyl-cyclohexylammonium salt]
- P50 mm Hg EFF:WB (fHb) (Free Hemoglobin): 32.5 mm Hg
- lysis of RBC on incubation ([1]; human WB, EFF:WB 1:0.375, 224 mOsM, 30 mM): Lyses; also recorded: lysis
- P50 Increase % ([1]; human WB, 224 mOsM, 30 mM): 26%
- P50 mm HG EFF:WB ([1]; human WB, 224 mOsM, 30 mM): 29.5 mm Hg
- P50 Increase % ([1]; human WB, 310 mOsM, 30 mM): 25%
- P50 mm HG EFF:WB ([1]; human WB, 310 mOsM, 30 mM): 30 mm Hg
- lysis of the RBC [1]: no lysis
- lysis of red blood cells (hemolysis) ([1]; listed as 2b): did not trigger hemolysis
- lysis of red blood cells (hemolysis) ([1]; listed as IHP-cholesterol derivative with N,N-dimethyl-cyclohexylammonium countercations): without any detectable cell lysis
- Shift of P50 % (C57B1/6 mice [2]; iv 135 μL of 30 nM): <3%
- Number of mice died (C57B1/6 mice [2]; iv 135 μL of 30 mM, 2 mice injected): 0
- Number of mice died (C57B1/6 mice [2]; iv 165 μL of 30 mM, 2 mice injected): 2
- Number of mice died (C57B1/6 mice [4]; [7]): 1
- toxicity upon iv injection in mice (C57B1/6 mice [4]): high level of toxicity
- shift of P50 in blood of surviving mice (C57B1/6 mice [4]): did not show a significant shift of P50

Compound: CC(C)CCCC(C)C1CCC2C3CC=C4CC(OC(=O)OP(=O)(O)OC5C(OP(=O)(O)O)C(OP(=O)(O)O)C(OP(=O)(O)O)C(OP(=O)(O)O)C5OP(=O)(O)O)CCC4(C)C3CCC12C.CN(C)C1CCCCC1.CN(C)C1CCCCC1.CN(C)C1CCCCC1.CN(C)C1CCCCC1.CN(C)C1CCCCC1.CN(C)C1CCCCC1.CN(C)C1CCCCC1.CN(C)C1CCCCC1 (centres unmarked) [SV192bis]
- P50 Increase % ([1]; human WB, 220 mOsM, 30 mM): 6%
- P50 mm HG EFF:WB ([1]; human WB, 220 mOsM, 30 mM): 26.6 mm Hg
- P50 Increase % ([1]; human WB, 272 mOsM, 30 mM): 6%
- P50 mm HG EFF:WB ([1]; human WB, 272 mOsM, 30 mM): 24 mm Hg
- P50 Increase % ([1]; human WB, 306 mOsM, 30 mM): 13%
- P50 mm HG EFF:WB ([1]; human WB, 306 mOsM, 30 mM): 28.3 mm Hg
- lysis of the RBC [1]: no lysis

Compound: CC(C)CCCC(C)C1CCC2C3CC=C4CC(OC(=O)OP(=O)(O)OC5C(OP(=O)(O)O)C(OP(=O)(O)O)C(OP(=O)(O)O)C(OP(=O)(O)O)C5OP(=O)(O)O)CCC4(C)C3CCC12C.CN(C)C1CCCCC1.CN(C)C1CCCCC1.CN(C)C1CCCCC1.CN(C)C1CCCCC1.CN(C)C1CCCCC1.CN(C)C1CCCCC1.CN(C)C1CCCCC1.CN(C)C1CCCCC1 (centres unmarked) [SV192ter]
- P50 Increase % ([1]; human WB, 202 mOsM, 30 mM): 5%
- P50 mm HG EFF:WB ([1]; human WB, 202 mOsM, 30 mM): 26.3 mm Hg
- P50 Increase % ([1]; human WB, 258 mOsM, 30 mM): 2%
- P50 mm HG EFF:WB ([1]; human WB, 258 mOsM, 30 mM): 25.6 mm Hg
- P50 Increase % ([1]; human WB, 274 mOsM, 30 mM): 3%
- P50 mm HG EFF:WB ([1]; human WB, 274 mOsM, 30 mM): 26.8 mm Hg
- P50 Increase % ([1]; human WB, 303 mOsM, 30 mM): 4%
- P50 mm HG EFF:WB ([1]; human WB, 303 mOsM, 30 mM): 26.2 mm Hg
- lysis of the RBC [1]: no lysis
- P50 mm HG EFF:WB [3, 9]: 46.4 mm Hg
- P50 mm HG EFF:WB ([3]; EFF:WB 1:1.5, 264 mOsM, 15 mM): 42.2 mm Hg
- P50 mm HG EFF:WB ([3]; EFF:WB 1:1.5, 276 mOsM, 30 mM): 43.5 mm Hg
- P50 mm HG EFF:WB ([3]; EFF:WB 1:1.5, 283 mOsM, 5 mM): 43.1 mm Hg
- P50 mm HG EFF:WB ([3]; EFF:WB 1:1.5, 314 mOsM, 60 mM): 43.1 mm Hg
- P50 mm HG EFF:WB ([3]; EFF:WB 1:1.5, 320 mOsM, 30 mM): 41.4 mm Hg and 43.4 mm Hg and 41.9 mm Hg
- P50 mm HG EFF:WB ([3]; EFF:WB 1:1.5, 320 mOsM, 50 mM): 42.6 mm Hg
- P50 Increase % [3, 9]: 8%
- P50 Increase % ([3]; EFF:WB 1:1.5, 264 mOsM, 15 mM): 2%
- P50 Increase % ([3]; EFF:WB 1:1.5, 276 mOsM, 30 mM): 5%
- P50 Increase % ([3]; EFF:WB 1:1.5, 283 mOsM, 5 mM): 7%
- P50 Increase % ([3]; EFF:WB 1:1.5, 314 mOsM, 60 mM): 4%
- P50 Increase % ([3]; EFF:WB 1:1.5, 320 mOsM, 30 mM): 8% and 13% and 9%
- P50 Increase % ([3]; EFF:WB 1:1.5, 320 mOsM, 50 mM): 5%

Compound: Inositol hexaphosphate-cholesteroloxycarbonyl, hepta N,N-dimethyl-cyclohexylammonium salt [KF16]
- right shift of P50 after ip injection (mice RBC): strong right shift of P50
- P50 Increase % [5]: 90%
- P50 mm Hg EFF/fHb [5]: 52.17 mm Hg
- P50 mm Hg EFF:WB ([3]; 1:1.5, 283 mOsM, pH 7.1, 30 mM, 60 min 37° C.): 36.14 mm Hg
- P50 Increase % (C57B1/6 mice [6]; iv 200 μL of 60 mM, 2 h after injection): > 10%
- right shift in P50 value at lower concentrations (C57B1/6 mice [6]; iv, concentrations lower than 60 mM): 6-9%
